Source: ChEMBL document CHEMBL3430912, “GSK Tres Cantos Anti-Kinetoplastid Screening (TCAKS) Data”
pIC50: −log10 of the molar value.

Tests used:
Trypanosoma cruzi [1] = assay: GSK_TCAKS: pIC50 Trypanosoma cruzi viability assay using beta-GAL activity. This assay was run at single shot at 5uM compound concentration per well. The biological reagents consisted of NIH-3T3 host cells and trypomastigotes parasitic cells; both cell types were set to a 3.3 * 10^5 cells/mL dilution in assay DMEM by means of a CASY cell counter device using a 60um capillary. 6 uL of the mixture were dispensed per well (about 1 * 10^3 host-cells and 1 * 10^3 parasites) with a Multidrop Combi dispenser. […] In all wells, the percentage of DMSO never exceeded 0.5%. Plates incubated for four days at 37C, 5% CO2. The substrate used for the assay fluorescence intensity (FLINT) readout was resorufin-beta-D-galactopiranoside (Sigma-Aldrich) at 5uM per well. It was diluted in PBS supplemented with the soft detergent Igepal (Fluka).; assay type: functional, organism-based, Mus musculus; conditions: Tulahuen, NIH3T3
Trypanosoma cruzi [2] = assay: (§1) GSK_TCAKS: pIC50 Trypanosoma cruzi Imaging: Infected Cells. […] Cells were then washed once with PBS before infection. T. cruzi trypomastigotes, collected at days 5 to 8 after infection from LLC-MK2 parasite infected cultures, were allowed to swim out for 4h at 37C from a centrifuged pellet (2,500 rpm/10 min/room temperature). Trypomastigotes were then collected and counted in a CASY Cell Counter. Trypomastigotes, in supplemented DMEM, were added to H9c2 cultures in a multiplicity of infection of 1 and incubated for 18 h. Cells were washed once with PBS before incubation of the infected H9c2 monolayer with trypsin (Life-Technologies) to detach cells from the flask. Cells were counted in a CASY Cell Counter using a 150 um capillary and their density set at 5 * 10^4 cells per mL in supplemented assay DMEM. Infected H9c2 were dispensed into 384-well poly-lysine coated assay plates at 50uL per well using a Multidrop Combi dispenser. After seeding them, the plates were incubated at 37C, 5% CO2 for 72h. Cultures were then fixed and stained by addition of 50 uL of a solution containing 8% formaldehyde and 4 uM DRAQ5 DNA dye (BioStatus, UK) per well. […] Five images were collected per well for reliable statistical analysis. Automated image analysis was performed with a script developed on Acapella High Content Imaging and Analysis Software (PerkinElmer). Output: percentage of infected cells per well as a second infection marker.; assay type: functional, organism-based, Rattus norvegicus; conditions: H9c2, 4 h
Trypanosoma cruzi [3] = assay: GSK_TCAKS: pIC50 Trypanosoma cruzi Imaging: Amastigotes/Cell. […] Cells were then washed once with PBS before infection. T. cruzi trypomastigotes, collected at days 5 to 8 after infection from LLC-MK2 parasite infected cultures, were allowed to swim out for 4h at 37C from a centrifuged pellet (2,500 rpm/10 min/room temperature). Trypomastigotes were then collected and counted in a CASY Cell Counter. Trypomastigotes, in supplemented DMEM, were added to H9c2 cultures in a multiplicity of infection of 1 and incubated for 18 h. Cells were washed once with PBS before incubation of the infected H9c2 monolayer with trypsin (Life-Technologies) to detach cells from the flask. Cells were counted in a CASY Cell Counter using a 150 um capillary and their density set at 5 * 10^4 cells per mL in supplemented assay DMEM. Infected H9c2 were dispensed into 384-well poly-lysine coated assay plates at 50uL per well using a Multidrop Combi dispenser. After seeding them, the plates were incubated at 37C, 5% CO2 for 72h. Cultures were then fixed and stained by addition of 50 uL of a solution containing 8% formaldehyde and 4 uM DRAQ5 DNA dye (BioStatus, UK) per well. […] Five images were collected per well for reliable statistical analysis. Automated image analysis was performed with a script developed on Acapella High Content Imaging and Analysis Software (PerkinElmer). Output: number of amastigotes per cell as infection level measurement.; assay type: functional, organism-based, Rattus norvegicus; conditions: H9c2, 4 h
Trypanosoma cruzi [4] = assay: as §1, with “H2C9” for “Trypanosoma cruzi”, “H9c2 Host Cardiomyocytes.” for “Infected Cells.”, “Number” for “percentage”, “H9c2 Host Cardiomyocytes nuclei to determine drug-related cytotoxicity.” for “infected cells per well as a second infection marker.”; assay type: functional, organism-based, Rattus norvegicus; conditions: H9c2, 4 h
Leishmania donovani [5] = assay: GSK_TCAKS: pIC50 Leishmania donovani viability assay using fluorescence intensity. Assay plates (1536-well) were prepared by adding 30nL per well of compound. For single shot assay, the final compound concentration was 5uM. […] Briefly, eGFP LdBOB axenic amastigotes were harvested, fixed and counted in a CASY cell counter (Roche-Applied Science). A final concentration of 1.5 * 10^5 cells per well were prepared in amastigote media containing 500 U/mL penicillin/streptomycin (Invitrogen) and 6uL was dispensed to each experimental well using a Multidrop Combi dispenser (Thermo Scientific). 6uL of assay media was dispensed to control columns used as reference for 100% compound response. Following incubation for 72 h at 37C, 5% CO2, 2 uL of resazurin was added to each well at a final concentration of 0.5 mM in phosphate buffered saline (PBS) with IGEPAL (Sigma-Aldrich), 0.05% (v/v).; assay type: functional, organism-based
Leishmania donovani [6] = assay: (§2) GSK_TCAKS: pIC50 Leishmania donovani Imaging: Infected Macrophages. Assay plates (384-well) were prepared by adding 250nL of compound to each well. For single shot assay, the final compound concentration was 5 uM. […] Automated image analysis was performed with a script developed on Acapella High Content Imaging and Analysis Software (PerkinElmer). Output: Percent of infected macrophage cells were reported for each well.; assay type: functional, organism-based, Homo sapiens; conditions: THP-1
Leishmania donovani [7] = assay: as §2, with “Amastigotes/Macrophages.” for “Infected Macrophages.”, “Average number” for “Percent”, “amastigotes per” for “infected”, “cell” for “cells”; assay type: functional, organism-based, Homo sapiens; conditions: THP-1
Leishmania donovani [8] = assay: as §2, with “THP-1 Host” for “Infected”, “THP-1 cell count” for “Percent of infected macrophage cells”; assay type: functional, organism-based, Homo sapiens
[9] = tested on: Trypanosoma brucei brucei; assay: GSK_TCAKS: pIC50 Trypanosoma brucei viability assay using fluorescence intensity. Assay plates (1536-well) were prepared by dispensing 25nL of compound solution per well using an Echo acoustic dispenser (Labcyte).; assay type: functional, organism-based; conditions: Lister 427, 2 h
[10] = tested on: Trypanosoma brucei brucei; assay: GSK_TCAKS: pIC50 Trypanosoma brucei viability assay using luminiscence. Assay plates (1536-well) were prepared. T. brucei cultures were harvested and counted in a CASY cell counter. A parasite suspension was prepared at a final concentration of 5 * 10^4 cells/mL in complete HMI9 medium and 6uL was dispensed to all wells containing compounds using a Multidrop Combi dispenser. 6uL of HMI9 media with 0.4% DMSO were dispensed to control columns. Plates were incubated for 24 h at 37C, 5% CO2 then tempered for 10 min at room temperature. ATP content was quantified by adding 4 uL of CellTiter-Glo Reagent (Promega) according to the manufacturer's instructions. Luminescence was measured using a ViewLux.; assay type: functional, organism-based; conditions: Lister 427, CASY
[11] = GSK_TCAKS: pIC50 HepG2 human cell line viability assay using luminiscence. […] Seeding density was checked to ensure that new mono-layers were not more than 50% confluent at the time of harvesting. Cell suspension was added to 500 mL of the same medium at a final density of 1.2 * 10^5 cells/mL. This cell suspension was dispensed (25 uL, 3000 cells per well) into 384-well clear-bottom plates using a Multidrop Combi dispenser. Prior to addition of the cell suspension, the screening compounds (250 nL) were pre-dispensed into the plates with an Echo liquid handler. Plates were incubated for 48 h at 37C, 5% CO2. After incubation, plates equilibrated at room temperature for 30 min before proceeding to develop the luminescent signal. The signal developer, CellTiter-Glo Reagent, was allowed to equilibrate at room temperature for 30 min and added to the plates (25uL per well) using a Multidrop Combi dispenser. Plates were left for 10 min at room temperature for stabilization and then read using a ViewLux.; assay type: toxicity, cell-based
[12] = target: Sterol 14-alpha demethylase (Trypanosoma cruzi (strain CL Brener), UniProt Q7Z1V1); assay: GSK_TCAKS: pIC50 CYP51 from Trypanosoma cruzi.; assay type: functional
Sequence of Sterol 14-alpha demethylase (Q7Z1V1 whole entry): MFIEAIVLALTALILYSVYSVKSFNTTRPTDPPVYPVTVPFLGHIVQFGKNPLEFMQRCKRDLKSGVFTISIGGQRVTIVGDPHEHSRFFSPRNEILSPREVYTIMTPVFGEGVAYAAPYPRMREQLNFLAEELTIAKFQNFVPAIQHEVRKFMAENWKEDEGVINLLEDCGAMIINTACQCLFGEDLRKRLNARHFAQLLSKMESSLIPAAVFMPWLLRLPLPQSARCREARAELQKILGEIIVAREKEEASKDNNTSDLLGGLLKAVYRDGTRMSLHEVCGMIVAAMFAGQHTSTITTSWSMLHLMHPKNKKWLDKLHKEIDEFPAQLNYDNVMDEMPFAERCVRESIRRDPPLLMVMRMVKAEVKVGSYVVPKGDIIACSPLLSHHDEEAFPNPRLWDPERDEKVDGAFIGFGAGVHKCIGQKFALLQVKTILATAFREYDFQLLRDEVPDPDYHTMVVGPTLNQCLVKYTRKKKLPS

| SMILES | pIC50 (Trypanosoma cruzi [1]) | pIC50 (Trypanosoma cruzi [2]) | pIC50 (Trypanosoma cruzi [3]) | pIC50 (Trypanosoma cruzi [4]) | pIC50 (Leishmania donovani [5]) | pIC50 (Leishmania donovani [6]) | pIC50 (Leishmania donovani [7]) | pIC50 (Leishmania donovani [8]) | pIC50 [9] | pIC50 [10] | IC50 at 48 h [11] [µM] | pIC50 [12] |
| --- | --- | --- | --- | --- | --- | --- | --- | --- | --- | --- | --- | --- |
| Cc1cc(NC(=O)C2CC2)ccc1OC1CCN(Cc2ccco2)CC1 | 4.80 | 4.40 | 4.70 | 4.40 | < 4.30 | 4.70 | 4.90 | 4.90 | 6.90 | 6.60 | 50.1 | 4.20 |
| CC(c1cc(Cl)cc(Cl)c1)N(C)c1ncc2c(N)nc(N)nc2n1 (stereo unspecified) | 7.20 | 8.70 | 9.00 | 5.10 | 6.10 | 6.10 | 6.60 | 4.50 | < 4.40 | 4.50 | 63.1 | 4.40 |
| COc1ccc(C(=O)NC2CCN(CCn3c(=O)ccc4ncc(F)cc43)CC2)cc1Cl | 6.30 | 6.20 | 6.50 | < 4.30 | 5.40 | < 4.30 | 4.80 | < 4.30 | 6.90 | 6.60 | > 100 | 4.80 |
| NCc1csc(Nc2cc(Oc3ccccc3)ncn2)n1 | 4.50 | 4.60 | 4.50 | < 4.30 | < 4.30 | 4.60 | 4.60 | < 4.30 | 6.20 | 6.10 | > 100 | 6.50 |
| CC(=O)NCCNc1cc(-c2ccnc(Nc3cccc(Cl)c3)n2)ccn1 | 6.40 | 5.80 | 6.80 | 6.40 | 6.50 | 6.60 | 7.00 | 7.00 | 6.70 | 6.70 | 25.1 | 5.30 |
| CCCCn1c(=O)c2c(N)onc2n(CCCC)c1=O | 4.60 | 4.50 | 4.60 | 4.60 | < 4.30 | < 4.30 | 4.50 | < 4.30 | 6.20 | 6.30 | 50.1 | 4.10 |
| c1ccc(CNc2cccc3ccncc23)cc1 | 5.20 | 5.20 | 5.30 | < 4.30 | 5.00 | 5.10 | 5.30 | 4.30 | 4.60 | < 4.40 | > 100 | 7.00 |
| COc1cccc(CN(C)Cc2nc(N)c3c(C)c(C)sc3n2)c1 | 5.20 | 4.80 | 4.80 | < 4.30 | 4.50 | 5.30 | 5.50 | 4.50 | 5.30 | 5.40 | 39.8 | < 4.00 |
| CCn1c(NC(=O)Cc2ccc(F)cc2)nc2ccccc21 | 5.30 | 5.10 | 5.40 | < 4.30 | 5.00 | 5.00 | 5.20 | < 4.30 | 5.50 | 5.30 | > 100 | 4.60 |
| Cc1cc(NC(=O)CC2CCCCC2)n(-c2nc3c(c(=O)[nH]2)CCC3)n1 | 6.60 | 6.50 | 6.90 | 5.40 | 7.50 | 5.50 | 5.80 | 5.40 | 6.70 | 6.80 | > 100 | < 4.00 |
| Cc1nc2c(-c3ncn[nH]3)cc(NC(=O)Cc3ccccc3)cn2c1C | 6.00 | 6.00 | 6.10 | 5.20 | 6.10 | 6.40 | 6.50 | 5.10 | 5.50 | 5.00 | 15.8 | 5.00 |
| COc1cc(OC)cc(C(NS(=O)(=O)c2ccc(Cl)c(C(F)(F)F)c2)c2nccn2C)c1 (stereo unspecified) | 5.40 | 5.20 | 5.50 | 5.00 | 5.00 | 5.20 | 5.30 | < 4.30 | 5.10 | 5.10 | > 100 | 4.50 |
| Cc1cc(=O)n2nc(Oc3ccc(C#N)cc3Cl)sc2n1 | 4.80 | 4.50 | 4.60 | 4.50 | 4.90 | 4.50 | 4.50 | 4.50 | 6.20 | 6.50 | 39.8 | < 4.00 |
| c1ccc(Nc2nc(-c3ccccn3)cc(N3CCOCC3)n2)cc1 | 5.70 | < 4.30 | 4.60 | 6.20 | 5.20 | 5.70 | 5.90 | < 4.30 | 4.80 | 4.90 | > 100 | < 4.00 |
| Cc1nc2c(-c3nc(-c4ccc(N)cc4)n[nH]3)cccn2c1C | 5.20 | < 4.30 | < 4.30 | 5.00 | 5.50 | 5.70 | 5.80 | 4.90 | 4.90 | 4.60 | 15.8 | < 4.00 |
| O=C1COC(c2ccccc2)(c2ccccc2)CN1C1CCN(Cc2ccc(-n3ccnc3)cc2)CC1 | 5.80 | 5.70 | 6.30 | 4.50 | 4.50 | 4.80 | 4.90 | 4.80 | 6.10 | 6.00 | 50.1 | 7.10 |
| COc1ccc(-c2cnc(NC(=O)c3ccc(F)cc3)n2C)cc1 | 5.60 | 5.30 | 5.70 | < 4.30 | 5.50 | 5.90 | 6.30 | < 4.30 | 5.90 | 5.50 | > 100 | 5.00 |
| NC(=O)c1ccsc1NC(=O)c1ccc([N+](=O)[O-])s1 | 7.10 | 6.90 | 7.00 | < 4.30 | 6.50 | 5.80 | 5.90 | 4.90 | 6.70 | 5.80 | > 100 | < 4.00 |
